According to patent US20050287114A1, “Water-soluble polymeric bone-targeting drug delivery system” (University of Utah Research Foundation, priority 2003, published 2005):

Columns and labels:
[1] = in vitro bone-targeting capacity: binding of conjugates to hydroxyapatite; details: conjugate 1 mg/mL in phosphate buffered saline, 5 mg HA, 1 h at R.T., UV absorbance of supernatant
Protocol: Conjugates were dissolved in phosphate buffered saline to give a concentration of 1 mg/mL. The conjugate solution (100 μL) and 100 μL of the same buffer were incubated with 5 mg of hydroxyapatite (HA, Bio-Gel HTP, DNA grade; BIO-RAD, Hercules, Calif.) for 1 h at R.T. The solution was then centrifuged. The UV absorbance at certain wavelengths (FITC, 490 nm; 9-Gly-ATC, 450 nm) of the supernatant was monitored with an ELISA plate reader. Background correction was applied. The data presented is the average of three samples. The binding efficiency is expressed as the percentage of conjugates bound to HA (FIG. 4).

[2] = water solubility of lyophilized product; format: physicochemical
Protocol: TC was first transformed into anhydrotetracycline; an amino group was then introduced into the D ring. Stoel, L. et al.(1976) J. Pharm. Sci. 65, 1794-1799; Menachery, M. D. & Cava, M. P. (1984) Can. J. Chem. 62, 2583-2584. Because of the low activity of the aromatic amine, a glycine was coupled to the D ring of the TC molecule in order to introduce a more reactive primary amine by the following procedure. Boc-glycine (192.7 mg, 1.1 mmol), 9-NH2-ATC (514 mg, 1 mmol) and methyl morpholine (MM, 220 μL, 2 mmol) were dissolved in DMF (8 mL) and stirred at 0° C. for 1 h. DCC (227 mg, 1.1 mmol, in 2 mL DCM) was added to the solution and stirred for 1 h. The temperature of the solution was then raised to R.T. and stirred overnight. The resulting suspension was filtered. The solid (product and DCU) was washed three times with ethyl acetate and dried under vacuum. The Boc protection was removed with TFA. DCU was removed to yield 360 mg of 9-Gly-ATC (lyophilized), which is water-soluble.

## Cc1c2c(c(O)c3c(O)c(NC(=O)CN)ccc13)C(=O)C1(O)C(=O)C(C(N)=O)=C(O)C(N(C)C)C1C2 (centres unmarked) [9-Gly-ATC, N-(9-aminoanhydrotetracycline)glycyl amide]
[1]
  binding to HA (percentage of conjugates bound to HA): slightly lower values
[2]
  water solubility: water-soluble
